Reference: patent publication EP1655289A1, “Quinazoline derivatives, process for their preparation, their use as antimitotics and pharmaceutical compositions comprising said derivatives” (EMBL, priority 2004, dated 2006)
Like-named read-outs stand apart in the source and are kept apart here.

Legend:
Eg5 = target: T1, Eg5 (Xenopus laevis, UniProt P28025); assay: Microtubule-stimulated ATPase activity of Eg5 (EnzChek Phosphate Assay), IC50 determination; type: biochemical; details: for potency as inhibitor of Eg5 compared to monastrol: ratio of IC50 values versus monastrol
T1 construct: Xenopus laevis Eg5 corresponding to amino acids 1 to 487; made in house; host or cells: E. coli M15(pREP4)
T1 sequence (P28025 1-487): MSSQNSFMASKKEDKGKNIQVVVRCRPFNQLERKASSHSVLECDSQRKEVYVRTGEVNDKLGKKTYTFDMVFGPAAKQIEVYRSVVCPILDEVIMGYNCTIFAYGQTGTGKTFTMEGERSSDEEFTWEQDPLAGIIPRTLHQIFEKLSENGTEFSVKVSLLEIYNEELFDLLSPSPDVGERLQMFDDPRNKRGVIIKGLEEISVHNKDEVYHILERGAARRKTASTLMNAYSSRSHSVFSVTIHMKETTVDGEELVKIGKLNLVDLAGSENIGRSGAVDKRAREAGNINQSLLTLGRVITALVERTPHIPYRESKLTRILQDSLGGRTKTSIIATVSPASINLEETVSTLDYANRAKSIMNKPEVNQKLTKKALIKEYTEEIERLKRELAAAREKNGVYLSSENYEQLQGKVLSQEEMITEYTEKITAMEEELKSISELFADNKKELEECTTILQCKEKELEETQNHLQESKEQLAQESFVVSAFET
Protocol: The protein was expressed in E. coli M15(pREP4) for 5 h at 18 °C in LB containing 1 mM isopropylthio-β-D-galactopyranoside (IPTG), 100 µg/ml ampicillin, 25 µg/ml kanamycin, and 2% (v/v) ethanol. The harvested cells were lysed in buffer A (50 mM KPi, 100 mM NaCl, 0.1 mM MgATP protease inhibitors (Roche), pH 7.0) with 5 mM mercaptoethanol (ME). The clarified lysate was loaded onto a HIS-Select Cobalt Affi Gel column (Sigma), washed with buffer A supplemented with 10 mM imidazole, 2 mM ME, 10 % (w/v) glycerol, and eluted with 150 mM imidazole, 50 mM KCI, 10 % (w/v) glycerol, 10 mM ME, pH 7.3. The buffer was exchanged to 50 mM 3-(N-morpholino)propanesulfonic acid/KOH, 50 mM KCI, 1 mM MgCl2, 1 mM EGTA, 10 mM ME, 20 % (w/v) glycerol, pH 7.0 by dialysis. The protein concentration was adjusted to 2 mg/ml (measured by a Bradford assay using bovine serum albumin (BSA) as standard). Eg5487H was frozen in liquid ethane and stored in liquid nitrogen.
Polymerized microtubules were then stabilized by addition of 1 µl 10 mM paclitaxel (Sigma) in DMSO and incubated at 37 °C for another 20 minutes. The suspension was centrifuged at 70000 rpm at 30 °C for 30 minutes in a TLA100 rotor (Beckman). The resulting microtubule pellet was resuspended in 60 µl assay buffer (10 mM imidazole/acetate, 5 mM K-acetate, 2 mM EGTA and 4 mM Mg-acetate, pH 6.8.) supplemented with 20 µM paclitaxel at 37 °C. This microtubule suspension was stored at room temperature. The final concentration was 80 µM polymerized tubulin as determined by Bradford using BSA as a standard.
Final concentrations were 40 nM Eg5487H, 4 µM microtubules (tubulin dimer concentration as determined by Bradford using BSA as standard), and 1 mM MgATP. The ATPase activity was measured as an increase of absorbance at 365 nm within 2 h at room temperature. 1 % (v/v) inhibitor in DMSO at different concentrations (or 1 % (v/v) DMSO as a control) was added at the start of the experiment. At least 4 measurements were performed per condition and the results were then averaged. The microtubule-stimulated activity of Eg5487H was obtained by subtracting background activity (measured with microtubules only in the absence of Eg5487H) from measurements containing Eg5487H and microtubules. The IC50 was determined by assuming non-competitive enzyme inhibition and fitting the theoretically expected dependence of the enzym activity on the inhibitor concentration to the experimental microtubule-stimulated ATPase activities. The equation used for the fit was v = vmax * IC50 / ([inhibitor] + IC50) + vres with v being the measured relative ATPase rate, vmax being the maximum ATPase rate and vres being a residual activity at high inhibitor concentration.

HeLa cells [1] = assay: FACS cell cycle analysis of HeLa cells after 18 h inhibitor treatment; type: cell-based, human; details: for cells in G2/M: FACS (control 23%)
Protocol: (§1) Hela cells were cultured in DMEM medium supplemented with 10 % (v/v) FCS to 60 % confluency. The culture medium was then exchanged by fresh medium containing different inhibitor or DMSO and the cells placed at 37 °C in 5 % CO2 for 18 h. The final volume of inhibitor dissolved in DMSO in the medium was always equal to or less than 0.1 % (v/v)For wash out experiments, cells were treated as described above. After 18 h cells were washed with phosphate buffered saline (PBS), covered with fresh medium and cultured for another 24 h at 37 °C in 5 % CO2.
HeLa cells were incubated for 18 hours in medium supplemented with various concentrations of either of the three compounds, monastrol or DMSO. Cells were then fixed and analyzed by FACS and immunofluorescence.
(§2) For FACS analysis, cells were scraped off the culture plate after inhibitor treatment or after wash-out and collected by centrifugation in a Heraeus Megafuge 1.0R at 1200 rpm for 5 min. The cell pellet was washed once with 5 ml PBS and then resuspended in 0.5 ml PBS. The cells were fixed by addition of 4 ml 70 % (v/v) ethanol and incubation overnight at -20 °C. Fixed cells were centrifuges at 1200 rpm for 5 min, washed with 5 ml PBS, and resuspended in 1ml PI solution (10 µg/ml propidium iodide, 100 µg/ml RNAse A, 0.05 % Triton X100 in PBS). After 30 min at 37 °C in the dark, cells were analyzed by fluorescence-activated cell sorting (FACS).

Xenopus egg extract = assay: Spindle assembly in Xenopus egg extracts; set-up: species or system Xenopus laevis
Protocol: Cytostatic factor (CSF)-arrested Xenopus laevis egg extracts were prepared as described previously. Spindle assembly experiments were performed in cycled extracts with sperm nuclei and tetramethylrhodamine labelled tubulin as described. 1 % (v/v) (or less) inhibitor dissolved in DMSO was added to the extract prior to spindle assembly. As control 1% DMSO was added to the extract. Spindles were fixed and centrifuged onto coverslips. The DNA was stained with DAPI. Structures were then visualized by epi-fluorescence microscopy (Zeiss Axiovert 135 equipped with a Roper CoolSnap HQ camera). Spindles and aberrant microtubule structures were then counted.

HeLa cells [2] = assay: Wash-out experiment in HeLa cells (18 h treatment, 24 h fresh medium); type: cell-based, human; details: 24 h in fresh medium
Protocol: as §1, §2
One useful characteristic of monastrol is that is non-toxic for the cells when applied transiently; once washed out cells resume mitosis. […]

[3] = microtubule-stimulated ATPase activity, 40 nM Eg5487H, 4 µM microtubules, 1 mM MgATP, read-out: IC50
[4] = 10 µM added to Xenopus egg extract

Row | Compound | IC50 (Eg5; [3]) [µM] | potency as inhibitor of Eg5 compared to monastrol (Eg5) | cells in G2/M (HeLa cells [1]; 10 µM) [%] | bipolar spindle formation (Xenopus egg extract; [4]) | IC50 (Eg5) [µM] | cells in G2/M (HeLa cells [1]; 100 µM) [%] | toxicity for the cells when applied transiently (HeLa cells [2]) | cell cycle distribution (HeLa cells [1]; 0.1 µM, FACS) | cells in G2/M (HeLa cells [1]; 0.5 µM) [%] | cells in G2/M (HeLa cells [1]; 1 µM) [%] | bipolar spindle formation (Xenopus egg extract; 1 µM added to Xenopus egg extract)
1 | O=C1CCCC2=C1C(c1cccc(O)c1)NC(=S)N2 (stereo not drawn) [Example 1, 4-(3-Hydroxyphenyl)-5-oxo-3,4,5,6,7,8-hexahydroquinazoline-2(1H)-thione] | 2 | more than ten times more potent | 77 | inhibited bipolar spindle formation |  |  |  |  |  |  | 
2 | CCOC(=O)C1=C(C)NC(=S)NC1c1cccc(O)c1 (stereo not drawn) [monastrol, 4-(3-hydroxyphenyl)-5-ethoxycarbonyl-6-methyl-3,4-dihydropyrimidin-2(1H), reference compound] |  |  | 31 |  | 30 | 74 | non-toxic |  |  |  | 
3 | Oc1cccc(C2NC(=S)NC3=C2C(O)CCC3)c1 (stereo not drawn) [Example 3, 4-(3-Hydroxyphenyl)-5-hydroxy-3,4,5,6,7,8-hexahydroquinazoline-2(1H)-thione] | 2 | more than ten times more potent | 77 | inhibited bipolar spindle formation |  |  |  |  |  |  | 
4 | CC1(C)CC(=O)C2=C(C1)NC(=S)NC2c1cccc(O)c1 (stereo not drawn) [Example 2, 7,7-Dimethyl-4-(3-hydroxyphenyl)-5-oxo-3,4,5,6,7,8-hexahydroquinazoline-2(1H)-thione] |  | more than 100 times |  |  | 0.2 |  |  | No cell cycle distribution abnormalities | 47 | 75 | inhibited bipolar spindle formation
